Measured values as given in patent US9833497B2, “Human originated EGF domain proteins and use of the same” (CHENGDU SOURCEBIO LIMITED-LIABILITY COMPANY, priority 2013, dated 2017).

How the values were obtained:
Assay type in all cases: cell-based
Enterobacter cloacae = experiment: MIC against Gram-negative bacteria: Enterobacter cloacae; conditions: 5×10^5 CFU/mL; for MIC against E. cloacae: Enterobacter cloacae; for MIC E. cloacae: two-fold serial dilution
Outline: (§1)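 MIC = lowest concentration of recombinant protein showing no growth. Test proteins: purified human-derived EGF domain proteins, two-fold dilution series, three wells per concentration; inoculum 5×10^5 CFU/mL in LB; incubation 37° C with shaking at 175 rpm.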

Proteus mirabilis = experiment: MIC against Gram-negative bacteria: Proteus mirabilis; conditions: 5×10^5 CFU/mL; for MIC against P. mirabilis: Proteus mirabilis; for MIC P. mirabilis: two-fold serial dilution
Outline: as §1

Serratia marcescens = experiment: MIC against Gram-negative bacteria: Serratia marcescens; conditions: 5×10^5 CFU/mL; for MIC against S. marcescens: Serratia marcescens; for MIC S. marcescens: two-fold serial dilution
Outline: as §1

Citrobacter diversus = experiment: MIC against Gram-negative bacteria: Citrobacter diversus; conditions: 5×10^5 CFU/mL; for MIC against C. diversus: Citrobacter diversus; for MIC C. diversus: two-fold serial dilution
Outline: as §1

Moraxella catarrhalis = experiment: MIC against Gram-negative bacteria: Moraxella catarrhalis; conditions: 5×10^5 CFU/mL; for MIC against M. catarrhalis: Moraxella catarrhalis; for MIC M. catarrhalis: two-fold serial dilution
Outline: as §1

Proteus vulgaris = experiment: MIC against Gram-negative bacteria: Proteus vulgaris; conditions: 5×10^5 CFU/mL; for MIC against P. vulgaris: Proteus vulgaris; for MIC P. vulgaris: two-fold serial dilution
Outline: as §1

E. coli DH5α = experiment: Antibacterial activity: MIC and growth curve against E. coli DH5α in 96-well plate; conditions: minimal inhibitory concentration against E. coli DH5α; 96-well plate, 5×10^5 CFU/mL, 37° C., judged after 8 h
Outline: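 Log-phase DH5α (OD600 about 0.5, 37° C, 185 rpm in LB) was pelleted, resuspended in fresh LB and seeded at 5×10^5 CFU/mL with recombinant protein at 50, 25 and 12.5 μg/mL (two-fold series), in triplicate. Plates were shaken at 175 rpm, 37° C, and OD600 was read every 30 min. MIC was the lowest concentration with no growth.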

Aeromonas hydrophila = experiment: MIC against Gram-negative bacteria: Aeromonas hydrophila; conditions: 5×10^5 CFU/mL; for MIC against A. hydrophila: Aeromonas hydrophila; for MIC A. hydrophila: two-fold serial dilution
Outline: as §1

E. coli BL21 = experiment: MIC against Gram-negative bacteria: E. coli BL21; conditions: 5×10^5 CFU/mL; for MIC E. coli BL21: two-fold serial dilution
Outline: as §1

Pseudomonas aeruginosa = experiment: MIC against Gram-negative bacteria: Pseudomonas aeruginosa; conditions: 5×10^5 CFU/mL; for MIC against P. aeruginosa: Pseudomonas aeruginosa; for MIC P. aeruginosa: two-fold serial dilution
Outline: as §1

Klebsiella pneumonia = experiment: MIC against Gram-negative bacteria: Klebsiella pneumonia; conditions: 5×10^5 CFU/mL; for MIC against K. pneumonia: Klebsiella pneumonia; for MIC K. pneumonia: two-fold serial dilution
Outline: as §1

[1] = E. cloacae, 10 h cultivation at 37° C.
[2] = P. mirabilis, 10 h cultivation at 37° C.
[3] = S. marcescens, 10 h cultivation at 37° C.
[4] = C. diversus, 10 h cultivation at 37° C.
[5] = M. catarrhalis, 10 h cultivation at 37° C.
[6] = P. vulgaris, 10 h cultivation at 37° C.
[7] = A. hydrophila, 10 h cultivation at 37° C.
[8] = E. coli BL21, 10 h cultivation at 37° C.
[9] = P. aeruginosa, 10 h cultivation at 37° C.
[10] = K. pneumonia, 10 h cultivation at 37° C.

Substance: PRT238 (DICDPNPCENGGICLPGLADGSFSCECPDGFTDPNCS; listed as Homo sapiens)
- MIC (μg/mL) E. cloacae (Enterobacter cloacae; [1]): 25 µg/mL
- MIC (μg/mL) P. mirabilis (Proteus mirabilis; [2]): 12.5 µg/mL
- MIC (μg/mL) S. marcescens (Serratia marcescens; [3]): 12.5 µg/mL
- MIC (μg/mL) C. diversus (Citrobacter diversus; [4]): 25 µg/mL
- MIC (μg/mL) M. catarrhalis (Moraxella catarrhalis; [5]): 12.5 µg/mL
- MIC (μg/mL) P. vulgaris (Proteus vulgaris; [6]): 25 µg/mL
- MIC (E. coli DH5α): 25 µg/mL
- MIC (μg/mL) A. hydrophila (Aeromonas hydrophila; [7]): 12.5 µg/mL
- MIC (μg/mL) E. coli BL21 (E. coli BL21; [8]): 12.5 µg/mL
- MIC (μg/mL) P. aeruginosa (Pseudomonas aeruginosa; [9]): 25 µg/mL
- MIC (μg/mL) K. pneumonia (Klebsiella pneumonia; [10]): 50 µg/mL

Substance: PRT1482 (LCSFGCGSGICIAPNVCSCQDGEQGATCP; listed as Homo sapiens)
- MIC against E. cloacae (Enterobacter cloacae; 10 h cultivation at 37° C.): 12.5 µg/mL
- MIC against P. mirabilis (Proteus mirabilis; 10 h cultivation at 37° C.): 50 µg/mL
- MIC against S. marcescens (Serratia marcescens; 10 h cultivation at 37° C.): 25 µg/mL
- MIC against C. diversus (Citrobacter diversus; 10 h cultivation at 37° C.): 12.5 µg/mL
- MIC against M. catarrhalis (Moraxella catarrhalis; 10 h cultivation at 37° C.): 25 µg/mL
- MIC against P. vulgaris (Proteus vulgaris; 10 h cultivation at 37° C.): 25 µg/mL
- MIC (E. coli DH5α): 12.5 µg/mL
- MIC against A. hydrophila (Aeromonas hydrophila; 10 h cultivation at 37° C.): 50 µg/mL
- MIC against E. coli BL21 (E. coli BL21; [8]): 50 µg/mL
- MIC against P. aeruginosa (Pseudomonas aeruginosa; 10 h cultivation at 37° C.): 12.5 µg/mL
- MIC against K. pneumonia (Klebsiella pneumonia; 10 h cultivation at 37° C.): 50 µg/mL

Substance: PRT1133 (KAGPCEQAGSPCRNGGQCQDDQGFALNFTCRCLVGFVGARCE; listed as Homo sapiens)
- MIC E. cloacae (Enterobacter cloacae; 10 h cultivation at 37° C.): 25 µg/mL
- MIC P. mirabilis (Proteus mirabilis; 10 h cultivation at 37° C.): 12.5 µg/mL
- MIC S. marcescens (Serratia marcescens; 10 h cultivation at 37° C.): 12.5 µg/mL
- MIC C. diversus (Citrobacter diversus; 10 h cultivation at 37° C.): 12.5 µg/mL
- MIC M. catarrhalis (Moraxella catarrhalis; 10 h cultivation at 37° C.): 25 µg/mL
- MIC P. vulgaris (Proteus vulgaris; 10 h cultivation at 37° C.): 25 µg/mL
- MIC (E. coli DH5α): 12.5 µg/mL
- MIC A. hydrophila (Aeromonas hydrophila; 10 h cultivation at 37° C.): 25 µg/mL
- MIC E. coli BL21 (E. coli BL21; 10 h cultivation at 37° C.): 12.5 µg/mL
- MIC P. aeruginosa (Pseudomonas aeruginosa; 10 h cultivation at 37° C.): 12.5 µg/mL
- MIC K. pneumonia (Klebsiella pneumonia; 10 h cultivation at 37° C.): 12.5 µg/mL

Substance: PRT1223 (LEGACTRSPCQHGGTCMDYWSWQQCHCKEGLTGKYCE; listed as Homo sapiens)
- MIC against E. cloacae (Enterobacter cloacae; 96-well plate, 37° C., 10 h): 25 µg/mL
- MIC against P. mirabilis (Proteus mirabilis; 96-well plate, 37° C., 10 h): 12.5 µg/mL
- MIC against S. marcescens (Serratia marcescens; 96-well plate, 37° C., 10 h): 12.5 µg/mL
- MIC against C. diversus (Citrobacter diversus; 96-well plate, 37° C., 10 h): 25 µg/mL
- MIC against M. catarrhalis (Moraxella catarrhalis; 96-well plate, 37° C., 10 h): 50 µg/mL
- MIC against P. vulgaris (Proteus vulgaris; 96-well plate, 37° C., 10 h): 50 µg/mL
- MIC (E. coli DH5α): 50 µg/mL
- MIC against A. hydrophila (Aeromonas hydrophila; 96-well plate, 37° C., 10 h): 100 µg/mL
- MIC against E. coli BL21 (E. coli BL21; E. coli BL21, 96-well plate, 37° C., 10 h): 25 µg/mL
- MIC against P. aeruginosa (Pseudomonas aeruginosa; 96-well plate, 37° C., 10 h): 12.5 µg/mL
- MIC against K. pneumonia (Klebsiella pneumonia; 96-well plate, 37° C., 10 h): 50 µg/mL

Substance: PRT1093 (RKDWCESQPCQSRGRCINLWLSYQCDCHRPYEGPNCL; listed as Homo sapiens)
- MIC E. cloacae (Enterobacter cloacae; 10 h cultivation at 37° C.): 12.5 µg/mL
- MIC P. mirabilis (Proteus mirabilis; 10 h cultivation at 37° C.): 25 µg/mL
- MIC S. marcescens (Serratia marcescens; 10 h cultivation at 37° C.): 12.5 µg/mL
- MIC C. diversus (Citrobacter diversus; 10 h cultivation at 37° C.): 25 µg/mL
- MIC M. catarrhalis (Moraxella catarrhalis; 10 h cultivation at 37° C.): 12.5 µg/mL
- MIC P. vulgaris (Proteus vulgaris; 10 h cultivation at 37° C.): 50 µg/mL
- MIC (E. coli DH5α): 12.5 µg/mL
- MIC A. hydrophila (Aeromonas hydrophila; 10 h cultivation at 37° C.): 50 µg/mL
- MIC E. coli BL21 (E. coli BL21; 10 h cultivation at 37° C.): 50 µg/mL
- MIC P. aeruginosa (Pseudomonas aeruginosa; 10 h cultivation at 37° C.): 12.5 µg/mL
- MIC K. pneumonia (Klebsiella pneumonia; 10 h cultivation at 37° C.): 50 µg/mL

Substance: PRT430 (DIDECAQGAGILCTFRCLNVPGSYQCACPEQGYTMTANGRSCK; listed as Homo sapiens)
- MIC (Enterobacter cloacae; [1]): 12.5 µg/mL
- MIC (Proteus mirabilis; [2]): 12.5 µg/mL
- MIC (Serratia marcescens; [3]): 12.5 µg/mL
- MIC (Citrobacter diversus; [4]): 50 µg/mL
- MIC (Moraxella catarrhalis; [5]): 25 µg/mL
- MIC (Proteus vulgaris; [6]): 50 µg/mL
- MIC (E. coli DH5α): 12.5 µg/mL
- MIC (Aeromonas hydrophila; [7]): 25 µg/mL
- MIC (E. coli BL21; [8]): 25 µg/mL
- MIC (Pseudomonas aeruginosa; [9]): 50 µg/mL
- MIC (Klebsiella pneumonia; [10]): 25 µg/mL
